The text below walks through data of paper PMC5175178, “Development of an in-vivo active reversible butyrylcholinesterase inhibitor” (Scientific Reports, 2016).

Molecules are shown by their SMILES. Where two headings read alike, the source gives them in different places.

One assay concerns the target T1, huBChE (Homo sapiens, UniProt P06276).
T1 construct: made in house
Format: biochemical. The following applies: for IC50: head prints no unit, nM, read-out: IC50 ±SEM huBChE.

A further assay addresses T2, mAChE (Mus musculus, UniProt P21836).
T2 construct: donated by Florian Nachon (IBS, Grenoble)
T2 sequence (P21836 32-614): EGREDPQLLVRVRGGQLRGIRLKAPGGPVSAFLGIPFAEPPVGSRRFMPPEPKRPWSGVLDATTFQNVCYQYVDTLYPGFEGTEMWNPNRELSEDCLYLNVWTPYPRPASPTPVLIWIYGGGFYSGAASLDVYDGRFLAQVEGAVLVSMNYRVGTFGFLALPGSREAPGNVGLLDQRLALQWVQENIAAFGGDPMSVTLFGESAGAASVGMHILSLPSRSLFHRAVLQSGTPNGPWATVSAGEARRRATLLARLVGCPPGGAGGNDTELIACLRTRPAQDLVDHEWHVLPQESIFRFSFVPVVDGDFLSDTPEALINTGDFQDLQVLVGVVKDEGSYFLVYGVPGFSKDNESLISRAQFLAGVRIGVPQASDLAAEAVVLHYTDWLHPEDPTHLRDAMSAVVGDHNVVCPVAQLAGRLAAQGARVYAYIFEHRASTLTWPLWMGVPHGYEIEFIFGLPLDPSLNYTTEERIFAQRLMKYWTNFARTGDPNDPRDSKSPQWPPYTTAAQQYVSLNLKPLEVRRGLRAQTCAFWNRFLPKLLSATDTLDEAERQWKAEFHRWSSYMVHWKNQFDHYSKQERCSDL
As to the kind of experiment: In-vitro inhibitory activity against mAChE, method of Ellman. Format: biochemical, murine.

The mark [1] stands for this setting: residual activity at 10 µM, %RA >75% was considered no inhibition, Supplementary Table 1.
Where [2] appears, read: residual activity at 10 μM, Table 1.
Where [3] appears, read: residual activity at 10 μM, %RA > 75% was considered as no inhibition, Table 1.

T1 sequence (P06276 29-602): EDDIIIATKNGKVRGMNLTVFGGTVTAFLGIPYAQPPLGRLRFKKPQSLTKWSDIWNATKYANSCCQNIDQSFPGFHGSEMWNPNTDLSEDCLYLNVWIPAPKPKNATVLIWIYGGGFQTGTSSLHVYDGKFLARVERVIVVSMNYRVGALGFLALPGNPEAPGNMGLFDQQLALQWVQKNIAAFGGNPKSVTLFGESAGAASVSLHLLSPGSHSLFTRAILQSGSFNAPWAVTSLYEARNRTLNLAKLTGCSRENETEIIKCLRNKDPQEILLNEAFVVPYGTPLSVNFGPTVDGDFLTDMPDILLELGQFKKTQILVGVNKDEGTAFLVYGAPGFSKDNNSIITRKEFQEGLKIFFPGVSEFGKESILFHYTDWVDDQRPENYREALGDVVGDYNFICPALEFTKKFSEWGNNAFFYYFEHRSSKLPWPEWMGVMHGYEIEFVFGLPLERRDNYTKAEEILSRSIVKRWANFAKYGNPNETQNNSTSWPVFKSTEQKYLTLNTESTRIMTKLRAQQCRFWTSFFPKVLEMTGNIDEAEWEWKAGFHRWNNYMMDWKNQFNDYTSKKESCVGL
Protocol for huBChE: (§1) The inhibitory potencies of the compounds against the ChEs were determined using the method of Ellman[32].
(§2) The enzyme solutions were prepared by dilution of the concentrated stocks in phosphate-buffered solution (0.1 M, pH 8.0). […] The reactions were started by addition of the substrate, at room temperature. The final content of the organic solvent (DMSO) was always 1%. […] To determine the blank value (b), phosphate-buffered solution replaced the enzyme solution. The initial velocity (v0) was calculated from the slope of the linear trend obtained, with each measurement carried out in triplicate. […] The compounds were added to each well at a final concentration of 10 μM. […] The initial velocities in the presence of the test compounds (vi) were calculated. The inhibitory potencies are expressed as the residual activities (RA = (vi – b) / (vo – b)). […] The IC50 values were obtained by plotting the residual enzyme activities against the applied inhibitor concentrations, with the experimental data fitted to Equation (1):
(§3) where X is the logarithm of the inhibitor concentration, and Y is the residual activity. For the fitting procedure, the Gnuplot software and an in-house python script were used.
Protocol for mAChE: as §1, §2, §3

The term IC50 denotes the point on the concentration scale where inhibition reaches its midpoint. Take `COCCN(CC1CCCN(C2Cc3ccccc3C2)C1)S(=O)(=O)c1cccc(NC(C)=O)c1` (racemic) [compound 24, (±)-N-(3-(N-((1-(2,3-dihydro-1H-inden-2-yl)piperidin-3-yl)methyl)-N-(2-methoxyethyl)sulfamoyl)phenyl)acetamide]: the IC50 on huBChE (Supplementary Table 1) worked out at 8210 ± 601 nM. For the same compound, the “%RA at 10 µM ±SEM mAChE” value at mAChE (setting [1]) was 95% ±4%.

For the compound `O=S(=O)(NCC1CCCN(Cc2ccc(F)cc2)C1)c1ccc2ccccc2c1` (racemic) [compound 68, (±)-N-((1-(4-fluorobenzyl)piperidin-3-yl)methyl)naphthalene-2-sulfonamide], on huBChE (Supplementary Table 1), the IC50 was found to be 583 ± 43 nM. Besides, the “%RA at 10 µM ±SEM mAChE” value at mAChE (setting [1]) was 75% ±4%.

Turning to `COCCN(CC1CCCN(C2Cc3ccccc3C2)C1)S(=O)(=O)c1ccc(F)cc1` (racemic) [compound 18, (±)-N-((1-(2,3-dihydro-1H-inden-2-yl)piperidin-3-yl)methyl)-4-fluoro-N-(2-methoxyethyl)benzenesulfonamide], the IC50 on huBChE (Supplementary Table 1) was determined as 887 ± 80 nM. Besides, the “%RA at 10 µM ±SEM mAChE” value at mAChE (setting [1]) was 88% ±2%.

On to `COCCN(CC1CCCN(C2Cc3ccccc3C2)C1)S(=O)(=O)c1ccc(NC(C)=O)cc1` (racemic) [compound 23, (±)-N-(4-(N-((1-(2,3-dihydro-1H-inden-2-yl)piperidin-3-yl)methyl)-N-(2-methoxyethyl)sulfamoyl)phenyl)acetamide], for which, at huBChE (Supplementary Table 1), the IC50 was 321 ± 35 nM. The “%RA at 10 µM ±SEM mAChE” value on mAChE (setting [1]) is on record as 85% ±5%.

For the compound `O=S(=O)(NCC1CCN(Cc2ccccc2)CC1)c1ccc2ccccc2c1` [compound 86, N-((1-benzylpiperidin-4-yl)methyl)naphthalene-2-sulfonamide], on mAChE, the IC50 was 1780 ± 85 nM.

`N#Cc1ccc(CN2CCCC(CNS(=O)(=O)c3ccc4ccccc4c3)C2)cc1` (racemic) [compound 69, (±)-N-((1-(4-cyanobenzyl)piperidin-3-yl)methyl)naphthalene-2-sulfonamide]: the IC50 at huBChE (Supplementary Table 1) came to 2090 ± 328 nM. For the same compound, the “%RA at 10 µM ±SEM mAChE” value on mAChE (setting [1]) is on record as 93% ±5%.

In the case of `COCCCN(CC1CCN(C2Cc3ccccc3C2)CC1)S(=O)(=O)c1ccc2ccccc2c1` [compound 85, N-((1-(2,3-dihydro-1H-inden-2-yl)piperidin-4-yl)methyl)-N-(3-methoxypropyl)naphthalene-2-sulfonamide], at mAChE (setting [1]), the “%RA at 10 µM ±SEM mAChE” value was 86% ±0.004%.

As to `O=S(=O)(NCC1CCCN(Cc2ccccc2)C1)c1ccc2ccccc2c1` (racemic) [compound 7, (±)-N-((1-benzylpiperidin-3-yl)methyl)naphthalene-2-sulfonamide], the “%RA at 10 µM ±SEM mAChE” value at mAChE (setting [1]) is on record as 78% ±3%.

On to `COCCN(CC1CCCN(C2Cc3ccccc3C2)C1)S(=O)(=O)c1ccc([N+](=O)[O-])cc1` (racemic) [compound 20, (±)-N-((1-(2,3-dihydro-1H-inden-2-yl)piperidin-3-yl)methyl)-N-(2-methoxyethyl)-4-nitrobenzenesulfonamide], for which, on huBChE (Supplementary Table 1), the IC50 was determined as 3470 ± 52 nM. Also, the “%RA at 10 µM ±SEM mAChE” value on mAChE (setting [1]) was 91% ±1%.

As to `COCCN(CC1CCCN(Cc2ccccc2)C1)S(=O)(=O)c1cccc2ccccc12` (racemic) [compound 42, (±)-N-((1-benzylpiperidin-3-yl)methyl)-N-(2-methoxyethyl)naphthalene-1-sulfonamide], on huBChE (Supplementary Table 1), the IC50 was 59 ± 5.4 nM. Further, the “%RA at 10 µM ±SEM mAChE” value at mAChE (setting [1]) was 94% ±4%.

In the case of `COCCN(CC1CCCN(Cc2ccc(C#N)cc2)C1)S(=O)(=O)c1ccc2ccccc2c1` (racemic) [compound 39, (±)-N-((1-(4-cyanobenzyl)piperidin-3-yl)methyl)-N-(2-methoxyethyl)naphthalene-2-sulfonamide], the IC50 on huBChE (Supplementary Table 1) was 1460 ± 115 nM. Also, the “%RA at 10 µM ±SEM mAChE” value on mAChE (setting [1]) is on record as 97% ±2%.

Take `COCCN(CC1CCCN(Cc2ccccc2)C1)S(=O)(=O)c1ccc2ccc(OC)cc2c1` (racemic) [compound 43, (±)-N-((1-benzylpiperidin-3-yl)methyl)-7-methoxy-N-(2-methoxyethyl)naphthalene-2-sulfonamide]: at huBChE (Supplementary Table 1), the IC50 was 156 ± 33 nM. Besides, the “%RA at 10 µM ±SEM mAChE” value at mAChE (setting [1]) was 95% ±7%.

Turning to `COCCN(CC1CCCN(C2Cc3ccccc3C2)C1)S(=O)(=O)c1ccccc1` (racemic) [compound 16, (±)-N-((1-(2,3-dihydro-1H-inden-2-yl)piperidin-3-yl)methyl)-N-(2-methoxyethyl)benzenesulfonamide], the IC50 at huBChE (Supplementary Table 1) was 343 ± 5 nM. Besides, on mAChE (setting [1]), the “%RA at 10 µM ±SEM mAChE” value is on record as 97% ±4%.

On to `CCCCN(CC1CCCN(Cc2ccccc2)C1)S(=O)(=O)c1ccc2ccccc2c1` (racemic) [compound 48, (±)-N-((1-benzylpiperidin-3-yl)methyl)-N-butylnaphthalene-2-sulfonamide], for which the IC50 on huBChE (Supplementary Table 1) worked out at 35.5 ± 4.4 nM. Moreover, the “%RA at 10 µM ±SEM mAChE” value at mAChE (setting [1]) is given as 90% ±1%.

For `COCCN(CC1CCN(Cc2ccccc2)CC1)S(=O)(=O)c1ccc2ccccc2c1` [compound 75, N-((1-benzylpiperidin-4-yl)methyl)-N-(2-methoxyethyl)naphthalene-2-sulfonamide], at mAChE (setting [1]), the “%RA at 10 µM ±SEM mAChE” value is on record as 98% ±1%.

In the case of `COCCCN(CC1CCN(Cc2ccccc2)CC1)S(=O)(=O)c1ccc2ccccc2c1` [compound 6, N-((1-benzylpiperidin-4-yl)methyl)-N-(3-methoxypropyl)naphthalene-2-sulfonamide], the “%RA at 10μM ± SEM huBChE” value at huBChE (setting [2]) is 0.93% ± 0.27%. The “%RA at 10 µM ±SEM mAChE” value on mAChE (setting [3]) was 95% ± 4%; on mAChE (setting [1]), 95% ±4%.

For `O=S(=O)(NCC1CCCN(c2nc3ccccc3s2)C1)c1ccc2ccccc2c1` (racemic) [compound 71, (±)-N-((1-(benzo[d]thiazol-2-yl)piperidin-3-yl)methyl)naphthalene-2-sulfonamide], the “%RA at 10μM ± SEM huBChE” value at huBChE (residual activity at 10 µM, Supplementary Table 1) is recorded as 30% ±2%.

`CCN(CC1CCCN(Cc2ccccc2)C1)S(=O)(=O)c1ccc2ccccc2c1` (racemic) [compound 46, (±)-N-((1-benzylpiperidin-3-yl)methyl)-N-ethylnaphthalene-2-sulfonamide]: the IC50 on huBChE (Supplementary Table 1) came to 38 ± 2.6 nM. Moreover, the “%RA at 10 µM ±SEM mAChE” value at mAChE (setting [1]) is 93% ±2%.

`COCCN(CC1CCCN(C2Cc3ccccc3C2)C1)S(=O)(=O)c1ccccc1C(=O)OC` (racemic) [compound 21, (±)-methyl 2-(N-((1-(2,3-dihydro-1H-inden-2-yl)piperidin-3-yl)methyl)-N-(2-methoxyethyl)sulfamoyl)benzoate]: the IC50 on huBChE (Supplementary Table 1) was determined as 359 ± 18 nM. Moreover, the “%RA at 10 µM ±SEM mAChE” value at mAChE (setting [1]) is 94% ±0.001%.

Consider `Cc1nc(CN2CCCC(CNS(=O)(=O)c3ccc4ccccc4c3)C2)cs1` (racemic) [compound 65, (±)-N-((1-((2-methylthiazol-4-yl)methyl)piperidin-3-yl)methyl)naphthalene-2-sulfonamide], for which the IC50 at huBChE (Supplementary Table 1) was found to be 336 ± 31 nM. The “%RA at 10 µM ±SEM mAChE” value at mAChE (setting [1]) is recorded as 71% ±4%.

With `CN(CC1CCCN(Cc2ccccc2)C1)S(=O)(=O)c1ccc2ccccc2c1` (racemic) [compound 8, (±)-N-((1-benzylpiperidin-3-yl)methyl)-N-methylnaphthalene-2-sulfonamide], the “%RA at 10 µM ±SEM mAChE” value on mAChE (setting [1]) is 82% ±1%.

Turning to `COCCCN(CC1CCCN(Cc2ccccc2)C1)S(=O)(=O)c1ccc2ccccc2c1` (racemic) [compound 5, (±)-N-((1-benzylpiperidin-3-yl)methyl)-N-(3-methoxypropyl)naphthalene-2-sulfonamide], the “%RA at 10μM ± SEM huBChE” value at huBChE (setting [2]) is 0.71% ± 0.66%. Besides, the results for the “%RA at 10 µM ±SEM mAChE” value at mAChE (setting [3]) and on mAChE (setting [1]) were 95% ± 5% and 95% ±5%, respectively.

As for `COCCN(CC1CCCN(C2Cc3ccccc3C2)C1)S(=O)(=O)c1cccc(N)c1` (racemic) [compound 4, (±)-3-amino-N-((1-(2,3-dihydro-1H-inden-2-yl)piperidin-3-yl)methyl)-N-(2-methoxyethyl)benzenesulfonamide], the “%RA at 10μM ± SEM huBChE” value at huBChE (setting [2]) is 2.34% ± 0.13%. Besides, the “%RA at 10 µM ±SEM mAChE” value is given as 90% ± 0.003% at mAChE (setting [3]) and 90% ±0.003% on mAChE (setting [1]).

On to `CN(CC1CCCN(Cc2ccc(F)cc2)C1)S(=O)(=O)c1ccc2ccccc2c1` (racemic) [compound 72, (±)-N-((1-(4-fluorobenzyl)piperidin-3-yl)methyl)-N-methylnaphthalene-2-sulfonamide], for which, at mAChE (setting [1]), the “%RA at 10 µM ±SEM mAChE” value is listed as 96% ±2%.

Regarding `COCCN(CC1CCCN(C2Cc3ccccc3C2)C1)S(=O)(=O)c1cccc([N+](=O)[O-])c1` (racemic) [compound 13, (±)-N-((1-(2,3-dihydro-1H-inden-2-yl)piperidin-3-yl)methyl)-N-(2-methoxyethyl)-3-nitrobenzenesulfonamide], the IC50 on huBChE (Supplementary Table 1) came to 3610 ± 528 nM.

As for `COCCN(CC1CCCN(C2Cc3ccccc3C2)C1)C(=O)c1ccc2ccccc2c1` (centres unmarked) [compound 1, reference compound], the IC50 on mAChE (Table 1, read-out: IC50 (nM) ± SEM mAChE) was 102000 ± 2500 nM.

Consider `COCCN(CC1CCN(C2Cc3ccccc3C2)CC1)S(=O)(=O)c1ccc2ccccc2c1` [compound 84, N-((1-(2,3-dihydro-1H-inden-2-yl)piperidin-4-yl)methyl)-N-(2-methoxyethyl)naphthalene-2-sulfonamide], for which the “%RA at 10 µM ±SEM mAChE” value on mAChE (setting [1]) is 87% ±3%.
